This passage reports relative viability results from the supplement of paper PMC10307832.

The structures appear in SMILES notation.

One assay relates to LK-2. Description: relative viability (nuclei count vs DMSO), 5 days (fraction); higher = more cells survive. Particulars: first compound 8 µM. Summed up: (§1)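 Relative viability equals treated-well nuclei counts divided by vehicle-well nuclei counts. Counts came from 4× images of lung cancer cell lines grown in 1536-well plates for 5 days after pin-tool dosing on the day after seeding. Dosing used one drug alone or a fixed anchor-drug dose plus five library-drug doses (not always all listed) in √10 steps, and values are medians of duplicate plates.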
Turning to `CCCCCCCCCCCC1=C(O)C(=O)C=C(O)C1=O` [Embelin] + CS(=O)(=O)N1CCN(Cc2cc3nc(-c4cccc5[nH]ncc45)nc(N4CCOCC4)c3s2)CC1 [Pictilisib] (partner 1 µM), the relative viability was found to be 0.562.
The molecule `CCCCCCCCCCCC1=C(O)C(=O)C=C(O)C1=O` [Embelin] + C[C@@H](Oc1cc(-c2cnn(C3CCNCC3)c2)cnc1N)c1c(Cl)ccc(F)c1Cl [Crizotinib] (partner 1 µM) displayed a relative viability of 0.208.

Another assay has as its system RERF-LC-KJ. The assay is described as above. To be noted: first compound 0.08 µM. Summed up:
as §1
With `CCCCCCCCCCCC1=C(O)C(=O)C=C(O)C1=O` [Embelin] + O=C(CCCCCCC(=O)Nc1ccccc1)NO [Vorinostat] (partner 1 µM), the relative viability is 0.673.
`CCCCCCCCCCCC1=C(O)C(=O)C=C(O)C1=O` [Embelin] + Cc1cc(Nc2cc(N3CCN(C)CC3)nc(Sc3ccc(NC(=O)C4CC4)cc3)n2)n[nH]1 [Tozasertib] (partner 0.1 µM) gave a relative viability of 0.567.
Still for that read-out and setting: for `CCCCCCCCCCCC1=C(O)C(=O)C=C(O)C1=O` [Embelin] + COc1cc2c(Oc3ccc(NC(=O)C4(C(=O)Nc5ccc(F)cc5)CC4)cc3F)ccnc2cc1OCCCN1CCOCC1 [Foretinib] (partner 0.25 µM) the value was 0.836.
The molecule `CCCCCCCCCCCC1=C(O)C(=O)C=C(O)C1=O` [Embelin] + CS(=O)(=O)N1CCN(Cc2cc3nc(-c4cccc5[nH]ncc45)nc(N4CCOCC4)c3s2)CC1 [Pictilisib] (partner 1 µM) showed a relative viability of 0.494.
Same read-out and setting: for `CCCCCCCCCCCC1=C(O)C(=O)C=C(O)C1=O` [Embelin] + C[C@@H](Oc1cc(-c2cnn(C3CCNCC3)c2)cnc1N)c1c(Cl)ccc(F)c1Cl [Crizotinib] (partner 1 µM) the value was 0.883.

Staying with this assay, now noted: first compound 0.8 µM.
As for `CCCCCCCCCCCC1=C(O)C(=O)C=C(O)C1=O` [Embelin] + O=C(CCCCCCC(=O)Nc1ccccc1)NO [Vorinostat] (partner 1 µM), the relative viability came out at 0.769.
Same read-out and setting: for `CCCCCCCCCCCC1=C(O)C(=O)C=C(O)C1=O` [Embelin] + Cc1cc(Nc2cc(N3CCN(C)CC3)nc(Sc3ccc(NC(=O)C4CC4)cc3)n2)n[nH]1 [Tozasertib] (partner 0.1 µM) the value was 0.532; for `CCCCCCCCCCCC1=C(O)C(=O)C=C(O)C1=O` [Embelin] + COc1cc2c(Oc3ccc(NC(=O)C4(C(=O)Nc5ccc(F)cc5)CC4)cc3F)ccnc2cc1OCCCN1CCOCC1 [Foretinib] (partner 0.25 µM), 0.965; for `CCCCCCCCCCCC1=C(O)C(=O)C=C(O)C1=O` [Embelin] + CS(=O)(=O)N1CCN(Cc2cc3nc(-c4cccc5[nH]ncc45)nc(N4CCOCC4)c3s2)CC1 [Pictilisib] (partner 1 µM), 0.652.
Same read-out and setting: for `CCCCCCCCCCCC1=C(O)C(=O)C=C(O)C1=O` [Embelin] + C[C@@H](Oc1cc(-c2cnn(C3CCNCC3)c2)cnc1N)c1c(Cl)ccc(F)c1Cl [Crizotinib] (partner 1 µM) the value was 0.912.

Staying with this assay, now noted: first compound 2.53 µM.
For `CCCCCCCCCCCC1=C(O)C(=O)C=C(O)C1=O` [Embelin] + O=C(CCCCCCC(=O)Nc1ccccc1)NO [Vorinostat] (partner 1 µM), the relative viability was 0.681.
On the same count and under the same terms, for `CCCCCCCCCCCC1=C(O)C(=O)C=C(O)C1=O` [Embelin] + Cc1cc(Nc2cc(N3CCN(C)CC3)nc(Sc3ccc(NC(=O)C4CC4)cc3)n2)n[nH]1 [Tozasertib] (partner 0.1 µM) the value was 0.564; for `CCCCCCCCCCCC1=C(O)C(=O)C=C(O)C1=O` [Embelin] + COc1cc2c(Oc3ccc(NC(=O)C4(C(=O)Nc5ccc(F)cc5)CC4)cc3F)ccnc2cc1OCCCN1CCOCC1 [Foretinib] (partner 0.25 µM), 0.95.
Still for that read-out and setting: for `CCCCCCCCCCCC1=C(O)C(=O)C=C(O)C1=O` [Embelin] + CS(=O)(=O)N1CCN(Cc2cc3nc(-c4cccc5[nH]ncc45)nc(N4CCOCC4)c3s2)CC1 [Pictilisib] (partner 1 µM) the value was 0.618; for `CCCCCCCCCCCC1=C(O)C(=O)C=C(O)C1=O` [Embelin] + C[C@@H](Oc1cc(-c2cnn(C3CCNCC3)c2)cnc1N)c1c(Cl)ccc(F)c1Cl [Crizotinib] (partner 1 µM), 0.906.

The assay is the same for the next values; noted with them: first compound 8 µM.
`CCCCCCCCCCCC1=C(O)C(=O)C=C(O)C1=O` [Embelin] + O=C(CCCCCCC(=O)Nc1ccccc1)NO [Vorinostat] (partner 1 µM) had a relative viability of 0.603.
In the case of `CCCCCCCCCCCC1=C(O)C(=O)C=C(O)C1=O` [Embelin] + Cc1cc(Nc2cc(N3CCN(C)CC3)nc(Sc3ccc(NC(=O)C4CC4)cc3)n2)n[nH]1 [Tozasertib] (partner 0.1 µM), the relative viability was 0.368.
The molecule `CCCCCCCCCCCC1=C(O)C(=O)C=C(O)C1=O` [Embelin] + COc1cc2c(Oc3ccc(NC(=O)C4(C(=O)Nc5ccc(F)cc5)CC4)cc3F)ccnc2cc1OCCCN1CCOCC1 [Foretinib] (partner 0.25 µM) registered a relative viability of 1.
`CCCCCCCCCCCC1=C(O)C(=O)C=C(O)C1=O` [Embelin] + CS(=O)(=O)N1CCN(Cc2cc3nc(-c4cccc5[nH]ncc45)nc(N4CCOCC4)c3s2)CC1 [Pictilisib] (partner 1 µM) displayed a relative viability of 0.587.
On to `CCCCCCCCCCCC1=C(O)C(=O)C=C(O)C1=O` [Embelin] + C[C@@H](Oc1cc(-c2cnn(C3CCNCC3)c2)cnc1N)c1c(Cl)ccc(F)c1Cl [Crizotinib] (partner 1 µM), for which the relative viability was determined as 0.937.

A further assay deals with NCI-H2085. Described as above. To be noted: first compound 0.08 µM. Summed up: as §1
As for `CCCCCCCCCCCC1=C(O)C(=O)C=C(O)C1=O` [Embelin] + O=C(CCCCCCC(=O)Nc1ccccc1)NO [Vorinostat] (partner 1 µM), the relative viability was determined as 0.742.
Same read-out and setting: for `CCCCCCCCCCCC1=C(O)C(=O)C=C(O)C1=O` [Embelin] + Cc1cc(Nc2cc(N3CCN(C)CC3)nc(Sc3ccc(NC(=O)C4CC4)cc3)n2)n[nH]1 [Tozasertib] (partner 0.1 µM) the value was 0.784.
Still for that read-out and setting: for `CCCCCCCCCCCC1=C(O)C(=O)C=C(O)C1=O` [Embelin] + COc1cc2c(Oc3ccc(NC(=O)C4(C(=O)Nc5ccc(F)cc5)CC4)cc3F)ccnc2cc1OCCCN1CCOCC1 [Foretinib] (partner 0.25 µM) the value was 1.04.
The same measure, in the same setting: for `CCCCCCCCCCCC1=C(O)C(=O)C=C(O)C1=O` [Embelin] + CS(=O)(=O)N1CCN(Cc2cc3nc(-c4cccc5[nH]ncc45)nc(N4CCOCC4)c3s2)CC1 [Pictilisib] (partner 1 µM) the value was 0.44; for `CCCCCCCCCCCC1=C(O)C(=O)C=C(O)C1=O` [Embelin] + C[C@@H](Oc1cc(-c2cnn(C3CCNCC3)c2)cnc1N)c1c(Cl)ccc(F)c1Cl [Crizotinib] (partner 1 µM), 0.666.

Still in this assay, the particulars now being: first compound 0.8 µM.
On to `CCCCCCCCCCCC1=C(O)C(=O)C=C(O)C1=O` [Embelin] + O=C(CCCCCCC(=O)Nc1ccccc1)NO [Vorinostat] (partner 1 µM), for which the relative viability amounted to 0.932.
On the same count and under the same terms, for `CCCCCCCCCCCC1=C(O)C(=O)C=C(O)C1=O` [Embelin] + Cc1cc(Nc2cc(N3CCN(C)CC3)nc(Sc3ccc(NC(=O)C4CC4)cc3)n2)n[nH]1 [Tozasertib] (partner 0.1 µM) the value was 0.939.
Still for that read-out and setting: for `CCCCCCCCCCCC1=C(O)C(=O)C=C(O)C1=O` [Embelin] + COc1cc2c(Oc3ccc(NC(=O)C4(C(=O)Nc5ccc(F)cc5)CC4)cc3F)ccnc2cc1OCCCN1CCOCC1 [Foretinib] (partner 0.25 µM) the value was 0.986.
